Results on 32 compounds are retold here after patent EP4745117A1, “NOVEL INDENONE DERIVATIVE AND USE THEREOF” (Amyloid Solution Inc., priority 2023, dated 2025).

Structures are written as SMILES.

One assay addresses T1, Aβ1-42 (Homo sapiens, UniProt P05067).
T1 construct: dissolving Aβ1-42 or Tau-RD3 (Tau repeat domain 3) monomers in DMSO
Description: Amyloid-beta disaggregation test by Thioflavin-T analysis. The class given is biochemical. To be noted: for EC50: Aβ1-42 50 µM aggregated 24 hours, then compound 0 - 500 µM for 48 hours at 37 °C, concentration disaggregating 50 % of aggregates vs control, read-out: EC50 (µM) Aβ; for disaggregation effect for amyloid-beta protein aggregates: statement in words summarising the Thioflavin-T results. In short, it runs like this: (§1)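 Aβ1-42 (50 µM) or Tau-RD3 (35 µM) pre-aggregated 24 h at 37 °C, then incubated with compound (500 µM down to 0 µM, serial dilution) for 48 h at 37 °C. Read-out by Thioflavin-T (5 µM solution, glycine buffer pH 8.5) fluorescence, ex 450/em 485 nm. Values expressed relative to 72 h aggregated protein-only control (100%).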

In assay [1] the target is Tau-RD3 (Tau repeat domain 3) (Homo sapiens, UniProt P10636). Description: Tau disaggregation test by Thioflavin-T analysis. The class given is biochemical. To be noted: for EC50: Tau-RD3 35 µM aggregated 24 hours, then compound 0 - 500 µM for 48 hours at 37 °C, concentration disaggregating 50 % of aggregates vs control, read-out: EC50 (µM) Tau; for disaggregation effect for tau protein aggregates: statement in words summarising the Thioflavin-T results. In outline:
as §1

T1 sequence (P05067 672-713 limits assumed): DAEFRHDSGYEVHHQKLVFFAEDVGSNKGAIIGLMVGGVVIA
Sequence of Tau-RD3 (Tau repeat domain 3) (P10636 623-653 limits assumed): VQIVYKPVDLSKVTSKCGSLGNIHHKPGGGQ

`Cc1ccccc1C1=C(c2ccccc2C)c2ccc(O)cc2C1=O` [Compound 82, 6-hydroxy-2,3-di-o-tolyl-1H-inden-1-one]: the EC50 (usually the midpoint of the concentration-response curve) on Aβ1-42 was below 20 µM; in assay [1], 20 to 100 µM.
Taken in the same sequence, the figures for `Cc1scnc1C1=C(c2cccnc2)C(=O)c2cc(O)ccc21` [Compound 23-10, 6-hydroxy-3-(5-methylthiazol-4-yl)-2-(pyridin-3-yl)-1H-inden-1-one] were above 250 µM and 20 to 100 µM.
As for `COc1cc(OCCCc2ccccc2)cc2c1C(c1scnc1C)=C(c1cccnc1)C2=O` [Compound 47, 4-methoxy-3-(4-methylthiazol-5-yl)-6-(3-phenylpropoxy)-2-(pyridin-3-yl)-1H-inden-1-one], at Aβ1-42, the concentration for a half-maximal effect (EC50) was below 20 µM and the “disaggregation effect for amyloid-beta protein aggregates” value is listed as “remarkably excellent disaggregation effect”. Besides, in assay [1], the EC50 was below 20 µM and the “disaggregation effect for tau protein aggregates” value is given as “remarkably excellent disaggregation effect”.
As for `O=C1C(C2CCCCC2)=C(c2ccccc2)c2ccccc21` [Compound 11, 2-cyclohexyl-3-phenyl-1H-inden-1-one], the EC50 is 100 to 250 µM at Aβ1-42 and above 250 µM in assay [1].
On to `Cn1cc(C2=C(c3cccnc3)C(=O)c3cc(OCCCc4ccccc4)ccc32)cn1` [Compound 42, 3-(1-methyl-1H-pyrazol-4-yl)-6-(3-phenylpropoxy)-2-(pyridin-3-yl)-1H-inden-1-one], for which the EC50 (at Aβ1-42; in assay [1]) was above 250 µM throughout.
With `Cc1ncsc1C1=C(c2ccn(C)n2)C(=O)c2cc(OCCCc3ccccc3)ccc21` [Compound 26, 2-(1-methyl-1H-pyrazol-3-yl)-3-(4-methylthiazol-5-yl)-6-(3-phenylpropoxy)-1H-inden-1-one], the concentration giving a half-maximal response (EC50) is below 20 µM at Aβ1-42 and above 250 µM in assay [1].
On the same counts, the results for `O=C1C(c2ccccc2)=C(c2cccc(N3CCOCC3)c2)c2ccccc21` [Compound 15, 3-(3-morpholinophenyl)-2-phenyl-1H-inden-1-one] are 20 to 100 µM and above 250 µM.
With `CN(C)c1ccc2c(c1)C(=O)C(c1ccccc1)=C2c1ccccc1` [Compound 69, 6-(dimethylamino)-2,3-diphenyl-1H-inden-1-one], the figures for the half-maximal effective concentration (EC50) (at Aβ1-42; in assay [1]) were below 20 µM and above 250 µM, respectively.
Regarding `COc1cccc(OC)c1C1=C(c2cccnc2)C(=O)c2cc(O)ccc21` [Compound 45-8, 3-(2,6-dimethoxyphenyl)-6-hydroxy-2-(pyridin-3-yl)-1H-inden-1-one], the EC50 on Aβ1-42 is 100 to 250 µM; in assay [1] it was above 250 µM.
Taken in the same sequence, the figures for `Cc1ncsc1C1=C(c2cccnc2)C(=O)c2cc(NC3CCOCC3)ccc21` [Compound 56, 3-(4-methylthiazol-5-yl)-2-(pyridin-3-yl)-6-((tetrahydro-2H-pyran-4-yl)amino)-1H-inden-1-one] were 20 to 100 µM and 20 to 100 µM.
As for `Cc1ncsc1C1=C(c2cnn(C)c2)C(=O)c2cc(OCCCc3ccccc3)ccc21` [Compound 28, 2-(1-methyl-1H-pyrazol-4-yl)-3-(4-methylthiazol-5-yl)-6-(3-phenylpropoxy)-1H-inden-1-one], on Aβ1-42, the half-maximal effective concentration (EC50) is below 20 µM and the “disaggregation effect for amyloid-beta protein aggregates” value is on record as “remarkably excellent disaggregation effect”. Besides, in assay [1], the EC50 was below 20 µM and the “disaggregation effect for tau protein aggregates” value is given as “remarkably excellent disaggregation effect”.
`CN1CCN(c2ccc3c(c2)C(=O)C(c2cccc(N4CCOCC4)c2)=C3c2ccccc2)CC1` [Compound 73, 6-(4-methylpiperazin-1-yl)-2-(3-morpholinophenyl)-3-phenyl-1H-inden-1-one]: the EC50 (at Aβ1-42; in assay [1]) was 100 to 250 µM in each case.
`Cc1ncsc1C1=C(c2scnc2C)c2ccc(N3CCN(CCO)CC3)cc2C1=O` [Compound 81, 6-(4-(2-hydroxyethyl)piperazin-1-yl)-2,3-bis(4-methylthiazol-5-yl)-1H-inden-1-one]: the EC50 (at Aβ1-42; in assay [1]) was 20 to 100 µM throughout.
As to `Cc1ncsc1C1=C(c2ccccn2)C(=O)c2cc(O)ccc21` [Compound 40-4, 6-hydroxy-3-(4-methylthiazol-5-yl)-2-(pyridin-2-yl)-1H-inden-1-one], the concentration giving a half-maximal response (EC50) (at Aβ1-42; in assay [1]) was above 250 µM throughout.
For the compound `Cc1ncsc1C1=C(c2cccnc2)C(=O)c2cc(O)ccc21` [Compound 35, 6-hydroxy-3-(4-methylthiazol-5-yl)-2-(pyridin-3-yl)-1H-inden-1-one], the EC50 (on Aβ1-42; in assay [1]) was 20 to 100 µM each time.
`Cc1ncsc1C1=C(c2cn(C)nn2)C(=O)c2cc(OCCCc3ccccc3)ccc21` [Compound 32, 2-(1-methyl-1H-1,2,3-triazol-4-yl)-3-(4-methylthiazol-5-yl)-6-(3-phenylpropoxy)-1H-inden-1-one]: the EC50 (on Aβ1-42; in assay [1]) was below 20 µM throughout.
Regarding `CNc1ccc2c(c1)C(=O)C(c1cccnc1)=C2c1scnc1C` [Compound 50, 6-(methylamino)-3-(4-methylthiazol-5-yl)-2-(pyridin-3-yl)-1H-inden-1-one], the concentration for a half-maximal effect (EC50) (at Aβ1-42; in assay [1]) was above 250 µM throughout.
As for `CC(=O)Oc1ccc2c(c1)C(=O)C(Br)=C2c1ccn(C)n1` [Compound 24, 2-bromo-3-(1-methyl-1H-pyrazol-3-yl)-1-oxo-1H-inden-6-yl acetate], the concentration for a half-maximal effect (EC50) at Aβ1-42 is above 250 µM; in assay [1], below 20 µM.
Consider `O=C1C(c2ccccc2)=C(Br)c2ccccc21` [Compound 5-4, 3-bromo-2-phenyl-1H-inden-1-one], for which, on Aβ1-42, the EC50 is below 20 µM and the “disaggregation effect for amyloid-beta protein aggregates” value is on record as “remarkably excellent disaggregation effect”. In assay [1], the 50% effective concentration (EC50) was below 20 µM and the “disaggregation effect for tau protein aggregates” value is on record as “remarkably excellent disaggregation effect”.
For `Cc1ncsc1C1=C(c2ccncc2)C(=O)c2cc(OCCCc3ccccc3)ccc21` [Compound 39, 3-(4-methylthiazol-5-yl)-6-(3-phenylpropoxy)-2-(pyridin-4-yl)-1H-inden-1-one], the EC50 on Aβ1-42 was below 20 µM; in assay [1], above 250 µM.
Take `Cc1ncsc1C1=C(c2cccnc2)C(=O)c2cc(NC3CCCC3)ccc21` [Compound 49, 6-(cyclopentylamino)-3-(4-methylthiazol-5-yl)-2-(pyridin-3-yl)-1H-inden-1-one]: the 50% effective concentration (EC50) at Aβ1-42 was below 20 µM; in assay [1], above 250 µM.
Take `Cc1ncsc1C1=C(c2cccnc2)C(=O)c2cc(NCCCc3ccccc3)ccc21` [Compound 20, 3-(4-methylthiazol-5-yl)-6-((3-phenylpropyl)amino)-2-(pyridin-3-yl)-1H-inden-1-one]: on Aβ1-42, the half-maximal effective concentration (EC50) was below 20 µM and the “disaggregation effect for amyloid-beta protein aggregates” value was “remarkably excellent disaggregation effect”. Further, in assay [1], the half-maximal effective concentration (EC50) was below 20 µM and the “disaggregation effect for tau protein aggregates” value is listed as “remarkably excellent disaggregation effect”.
Take `CN1CCN(c2cccc(C3=C(c4ccccc4)C(=O)c4ccccc43)c2)CC1` [Compound 95, 3-(3-(4-methylpiperazin-1-yl)phenyl)-2-phenyl-1H-inden-1-one]: the EC50 was 20 to 100 µM on Aβ1-42 and above 250 µM in assay [1].
Regarding `O=C1C(c2cncs2)=C(c2cncs2)c2ccc(O)cc21` [Compound 83-6, 6-hydroxy-2,3-di(thiazol-5-yl)-1H-inden-1-one], the EC50 on Aβ1-42 was above 250 µM; in assay [1] it was 100 to 250 µM.
With `O=C1C(c2ccccc2)=C(c2ccccc2)c2ccc(OCCCc3ccccc3)cc21` [Compound 78, 2,3-diphenyl-6-(3-phenylpropoxy)-1H-inden-1-one], the EC50 is 100 to 250 µM on Aβ1-42 and above 250 µM in assay [1].
For `Cc1ccccc1C1=C(c2c(C)cccc2C)c2ccc(O)cc2C1=O` [Compound 84, 3-(2,6-dimethylphenyl)-6-hydroxy-2-(o-tolyl)-1H-inden-1-one], on Aβ1-42, the EC50 was below 20 µM and the “disaggregation effect for amyloid-beta protein aggregates” value was “remarkably excellent disaggregation effect”. Besides, in assay [1], the concentration giving a half-maximal response (EC50) was below 20 µM and the “disaggregation effect for tau protein aggregates” value is listed as “remarkably excellent disaggregation effect”.
As to `O=C1C(c2ccc(N3CCOCC3)cc2)=C(c2ccccc2)c2ccccc21` [Compound 17, 2-(4-morpholinophenyl)-3-phenyl-1H-inden-1-one], the EC50 at Aβ1-42 is below 20 µM; in assay [1] it was above 250 µM.
Take `Cc1ncsc1C1=C(c2cccc(CN3CCN(C)CC3)c2)C(=O)c2ccccc21` [Compound 88, 2-(3-((4-methylpiperazin-1-yl)methyl)phenyl)-3-(4-methylthiazol-5-yl)-1H-inden-1-one]: the values for the concentration for a half-maximal effect (EC50) (at Aβ1-42; in assay [1]) were below 20 µM and 20 to 100 µM, respectively.
Regarding `Cc1ncsc1C1=C(c2cnccn2)C(=O)c2cc(OCCCc3ccccc3)ccc21` [Compound 41, 3-(4-methylthiazol-5-yl)-6-(3-phenylpropoxy)-2-(pyrazin-2-yl)-1H-inden-1-one], the EC50 was below 20 µM at Aβ1-42 and above 250 µM in assay [1].
Taken in the same sequence, the figures for `Cc1ncsc1C1=C(c2cccnc2)C(=O)c2ccccc21` [Compound 19, 3-(4-methylthiazol-5-yl)-2-(pyridin-3-yl)-1H-inden-1-one] were above 250 µM and 100 to 250 µM.
Take `Nc1ccc2c(c1)C(=O)C(c1ccccc1)=C2c1ccccc1` [Compound 68, 6-amino-2,3-diphenyl-1H-inden-1-one]: the EC50 (at Aβ1-42; in assay [1]) was above 250 µM in each case.
Consider `COc1cc(OC)c2c(c1)C(=O)C(c1ccccc1)=C2c1ccccc1` [Compound 97, 4,6-dimethoxy-2,3-diphenyl-1H-inden-1-one], for which the 50% effective concentration (EC50) is below 20 µM on Aβ1-42 and above 250 µM in assay [1].
